Patent US20250186433A1, “ACSS2 INHIBITORS AND METHODS OF USE THEREOF” (EpiVario, Inc., priority 2017, published 2025)
Where two headings read alike, the source gives them in different places.

Legend:
AACS = molecular target: T1, AACS (Homo sapiens, UniProt Q86V21); test: Acyl-CoA synthetases selectivity panel: AACS; type: biochemical; settings: human recombinant protein, substrate acetoacetyl, AMP readout by HPLC; read-out: HPLC based activity assays IC50 (UM) AACS
T1 construct: purchased Cusabio, China
T1 sequence (Q86V21 1-672): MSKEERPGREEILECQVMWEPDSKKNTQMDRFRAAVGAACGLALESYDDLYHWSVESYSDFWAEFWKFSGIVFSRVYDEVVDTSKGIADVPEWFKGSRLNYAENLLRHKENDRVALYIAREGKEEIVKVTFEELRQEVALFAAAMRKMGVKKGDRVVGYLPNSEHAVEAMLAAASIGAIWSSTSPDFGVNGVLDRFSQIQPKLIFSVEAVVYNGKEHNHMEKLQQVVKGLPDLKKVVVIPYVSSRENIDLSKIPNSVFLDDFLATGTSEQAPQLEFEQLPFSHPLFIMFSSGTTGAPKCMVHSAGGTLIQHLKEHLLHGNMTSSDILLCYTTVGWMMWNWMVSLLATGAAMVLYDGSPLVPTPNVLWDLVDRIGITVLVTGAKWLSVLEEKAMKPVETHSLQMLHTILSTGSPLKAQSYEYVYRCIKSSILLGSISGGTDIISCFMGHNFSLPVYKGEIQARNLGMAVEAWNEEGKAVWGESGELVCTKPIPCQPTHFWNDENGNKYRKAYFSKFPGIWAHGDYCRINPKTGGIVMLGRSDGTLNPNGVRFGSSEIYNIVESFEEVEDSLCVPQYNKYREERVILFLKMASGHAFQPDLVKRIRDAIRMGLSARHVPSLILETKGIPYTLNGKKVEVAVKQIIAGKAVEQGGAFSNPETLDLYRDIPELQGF
Source text: (§1) The biochemical assays for testing the selectivity of the compounds according to this invention, were done using human recombinant proteins (Cusabio, China). The readout of the assays was AMP levels, the […] of the reactions, by HPLC method. The acyl substrates (Sigma-Aldrich) of the assays were as followed: ACSS1/ACSS2—Acetate, AACS-Acetoacetyl, ACSF2—Octanoate and ACSL5—Palmitate. The protein in this panel include ACSS1, the closest homolog of ACSS2, in addition to representative short/medium/long chain acyl-CoA syntatases.

ACSS1 = molecular target: T2, ACSS1 (Homo sapiens, UniProt Q9NUB1); test: Acyl-CoA synthetases selectivity panel: ACSS1; type: biochemical; settings: human recombinant protein, substrate acetate, AMP readout by HPLC; read-out: HPLC based activity assays IC50 (UM) ACSS1
T2 construct: purchased Cusabio, China
T2 sequence (Q9NUB1 38-689): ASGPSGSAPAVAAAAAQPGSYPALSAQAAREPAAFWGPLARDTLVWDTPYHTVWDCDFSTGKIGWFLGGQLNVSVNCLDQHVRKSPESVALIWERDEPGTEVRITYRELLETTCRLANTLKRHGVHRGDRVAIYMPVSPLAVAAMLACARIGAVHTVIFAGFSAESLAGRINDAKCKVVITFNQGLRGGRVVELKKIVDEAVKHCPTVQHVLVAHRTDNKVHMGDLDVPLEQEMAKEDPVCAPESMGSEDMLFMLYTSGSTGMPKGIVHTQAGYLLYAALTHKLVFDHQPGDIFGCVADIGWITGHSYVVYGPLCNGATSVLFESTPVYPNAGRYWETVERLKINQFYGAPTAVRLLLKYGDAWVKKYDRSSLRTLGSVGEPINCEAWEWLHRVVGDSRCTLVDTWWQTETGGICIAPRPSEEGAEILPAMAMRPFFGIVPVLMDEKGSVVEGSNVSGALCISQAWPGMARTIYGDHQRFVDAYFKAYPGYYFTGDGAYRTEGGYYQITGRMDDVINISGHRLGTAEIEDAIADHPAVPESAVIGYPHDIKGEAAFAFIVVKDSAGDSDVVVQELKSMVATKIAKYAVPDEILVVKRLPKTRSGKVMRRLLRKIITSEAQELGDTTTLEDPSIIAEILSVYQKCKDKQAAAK
Source text: as §1

ACSF2 = molecular target: T3, ACSF2 (Homo sapiens, UniProt Q96CM8); test: Acyl-CoA synthetases selectivity panel: ACSF2; type: biochemical; settings: human recombinant protein, substrate octanoate, AMP readout by HPLC; read-out: HPLC based activity assays IC50 (UM) ACSF2
T3 construct: purchased Cusabio, China
T3 sequence (Q96CM8 42-615): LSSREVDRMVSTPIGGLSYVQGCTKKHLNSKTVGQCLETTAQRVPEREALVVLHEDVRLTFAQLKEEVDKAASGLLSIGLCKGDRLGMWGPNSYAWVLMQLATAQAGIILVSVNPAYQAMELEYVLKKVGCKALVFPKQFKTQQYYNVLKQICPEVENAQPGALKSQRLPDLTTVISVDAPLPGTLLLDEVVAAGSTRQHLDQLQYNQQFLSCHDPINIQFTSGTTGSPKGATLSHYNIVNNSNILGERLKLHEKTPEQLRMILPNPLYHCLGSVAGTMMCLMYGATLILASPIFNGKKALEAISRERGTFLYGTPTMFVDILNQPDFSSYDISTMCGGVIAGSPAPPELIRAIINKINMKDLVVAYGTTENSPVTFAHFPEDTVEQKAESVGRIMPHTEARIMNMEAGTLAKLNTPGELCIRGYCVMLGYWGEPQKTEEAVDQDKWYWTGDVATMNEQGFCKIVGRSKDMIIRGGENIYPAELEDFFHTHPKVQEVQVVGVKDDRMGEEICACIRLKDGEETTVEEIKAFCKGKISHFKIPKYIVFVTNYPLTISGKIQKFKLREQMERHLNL
Source text: as §1

ACSS2 [1] = molecular target: T4, ACSS2 (Homo sapiens, UniProt Q9NR19); test: Thermal stabilization of recombinant ACSS2 protein (Nano-DSF); type: binding
Source text: Thermal stabilization of recombinant ACSS2 protein by ACSS2 inhibitors. Interaction between the compound and recombinant ACSS2 protein was done by non-labeled Nano-DSF technic using the parameters described below. NanoDSF is a modified differential scanning fluorimetry method to determine protein stability that uses tryptophan or tyrosine fluorescence to monitor protein unfolding. The binding of compound to the protein leads to thermal stabilization that is quantified as the delta in the thermal melting points.

ACSS2 [2] = molecular target: T4, ACSS2; test: Binding to recombinant ACSS2 protein by Label Free MST; settings: for Kd: read-out: Kd [uM] Fluorescence
Source text: Binding of ACSS2 inhibitor to recombinant ACSS2 protein by Label Free MST. MicroScale Thermophoresis (MST) is an optical fluorescent method that records the changes in fluorescence of a target molecule as a function of temperature and the concentration of the cognate ligand molecule. The binding of small-molecules to the target proteins lead to changes in the fluorescence that can be measured and translated into binding Kd.

ACSS2 [3] = molecular target: T4, ACSS2; test: Acyl-CoA synthetases selectivity panel: ACSS2; type: biochemical; design: purchased Cusabio, China; settings: human recombinant protein, substrate acetate, AMP readout by HPLC; read-out: HPLC based activity assays IC50 (UM) ACSS2
Source text: as §1

T4 sequence (Q9NR19 whole entry): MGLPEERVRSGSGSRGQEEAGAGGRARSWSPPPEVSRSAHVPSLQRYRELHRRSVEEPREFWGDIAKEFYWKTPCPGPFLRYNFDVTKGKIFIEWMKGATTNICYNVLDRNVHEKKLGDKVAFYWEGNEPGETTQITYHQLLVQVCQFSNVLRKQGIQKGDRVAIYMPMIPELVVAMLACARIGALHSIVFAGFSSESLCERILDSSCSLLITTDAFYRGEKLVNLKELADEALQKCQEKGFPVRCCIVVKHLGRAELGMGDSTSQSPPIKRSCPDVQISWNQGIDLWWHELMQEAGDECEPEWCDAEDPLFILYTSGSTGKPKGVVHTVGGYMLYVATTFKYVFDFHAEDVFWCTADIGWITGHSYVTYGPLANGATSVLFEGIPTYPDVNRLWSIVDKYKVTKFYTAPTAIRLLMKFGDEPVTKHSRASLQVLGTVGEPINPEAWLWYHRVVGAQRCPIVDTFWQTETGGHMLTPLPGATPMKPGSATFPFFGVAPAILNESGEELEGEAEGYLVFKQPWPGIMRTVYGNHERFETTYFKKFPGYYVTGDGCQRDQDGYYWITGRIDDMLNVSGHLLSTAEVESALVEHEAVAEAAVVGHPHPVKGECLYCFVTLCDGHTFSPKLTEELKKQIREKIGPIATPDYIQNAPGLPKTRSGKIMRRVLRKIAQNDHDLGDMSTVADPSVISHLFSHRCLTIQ

COC(=O)c1cccc(N2N=C(C)C(C(=O)Nc3cccc(C(C)(F)F)c3)C2=O)c1 (centres unmarked) [compound 261, methyl 3-(4-((3-(1,1-difluoroethyl)phenyl)carbamoyl)-3-methyl-5-oxo-4,5-dihydro-1H-pyrazol-1-yl)benzoate]
IC50 (AACS): 24000 nM
IC50 (ACSS1): 1000 to 10000 nM
IC50 (ACSF2): 46000 nM
thermal shift in the melting temperature of ACSS2 (ACSS2 [1]; 0.03 mg/ml ACSS2, compound at different concentrations): dose-dependent thermal shift in the melting temperature of ACSS2
thermal shift in the presence of ATP or ATP and CoA versus buffer alone (ACSS2 [1]; 0.3 mM ATP, 0.3 mM ATP + 0.01 mM CoA): higher in the presence of ATP or ATP and CoA
Kd (ACSS2 [2]; Buffer A (no ATP, no CoA)): 0.46 ± 0.21 µM
Kd (ACSS2 [2]; Buffer B (+ATP), 0.3 mM ATP): 0.03 ± 0.01 µM
Kd (ACSS2 [2]; Buffer C (+ATP, +CoA), 0.3 mM ATP, 0.01 mM CoA): 0.04 ± 0.02 µM
Kd (ACSS2 [2]; Buffer D (+CoA), 0.01 mM CoA): 0.61 ± 0.17 µM
reduction of binding Kd when ATP was added to the buffer (ACSS2 [2]; Label Free MST): 10 fold
IC50 (ACSS2 [3]): < 1 nM
